The numbers were not newly measured in PubChem BioAssay AID1259409 (Chemical Carcinogenesis Research Information System (CCRIS), 2018), which cites them from elsewhere.

The data set relates to rodent chemically induced tumor inhibition, incidence and multiplicity. Nature of the data set: CCRIS tumor inhibitor studies.

In the case of `Cc1c(C)c2c(c(C)c1O)CC[C@@](C)(CCC[C@H](C)CCC[C@H](C)CCCC(C)C)O2`, the “tumour outcome (control, treated, inhibition, significance)” value is given as 65%, 65%, 0%, not calculated (Carcinogen: 7,12-DIMETHYLBENZ[A]ANTHRACENE, 57-97-6, Dose [Inhibitor]: 0.2% IN HIGH SATURATED FAT DIET DAILY STARTING 29 D BEFORE CARCINOGEN TREATMENT AND CONTINUING FOR DURATION OF STUDY (ST, Route [Inhibitor]: ORAL, Species: RAT, Strain/Sex: SPRAGUE-DAWLEY/FEMALE, Target Tissue: Type of Lesion: MAMMARY GLAND: ADENOCARCINOMA, Dose [Carcinogen]: 10 MG IN 1 ML STRIPPED CORN OIL ONCE AT 50 D OF AGE, Promoter: NONE USED); 35%, 35%, 0%, not calculated (Carcinogen: 7,12-DIMETHYLBENZ[A]ANTHRACENE, 57-97-6, Dose [Inhibitor]: 0.2% IN LOW FAT DIET DAILY STARTING 29 D BEFORE CARCINOGEN TREATMENT AND CONTINUING FOR DURATION OF STUDY (STUDY DURATIO, Route [Inhibitor]: ORAL, Species: RAT, Strain/Sex: SPRAGUE-DAWLEY/FEMALE, Target Tissue: Type of Lesion: MAMMARY GLAND: ADENOCARCINOMA, Dose [Carcinogen]: 10 MG IN 1 ML STRIPPED CORN OIL ONCE AT 50 D OF AGE, Promoter: NONE USED); 37%, 32%, 14%, not calculated (Carcinogen: 7,12-DIMETHYLBENZ[A]ANTHRACENE, 57-97-6, Dose [Inhibitor]: 0.2% IN LOW FAT DIET THROUGHOUT THE EXPERIMENT, (STUDY DURATION: 32 WK), Route [Inhibitor]: ORAL, Species: RAT, Strain/Sex: SPRAGUE-DAWLEY/FEMALE, Target Tissue: Type of Lesion: MAMMARY GLAND: PARENCHYMAL CELL CARCINOMA, Dose [Carcinogen]: 10 MG IN 1 ML CORN OIL AT 50 D OF AGE ONCE, Promoter: NONE USED); 67%, 65%, 3%, not calculated (Carcinogen: 7,12-DIMETHYLBENZ[A]ANTHRACENE, 57-97-6, Dose [Inhibitor]: 0.2% IN SATURATED FAT DIET THROUGHOUT THE EXPERIMENT, (STUDY DURATION: 32 WK), Route [Inhibitor]: ORAL, Species: RAT, Strain/Sex: SPRAGUE-DAWLEY/FEMALE, Target Tissue: Type of Lesion: MAMMARY GLAND: PARENCHYMAL CELL CARCINOMA, Dose [Carcinogen]: 10 MG IN 1 ML CORN OIL AT 50 D OF AGE ONCE, Promoter: NONE USED); 29/30 (97%), 27/30 (90%), 7%, not significant (Carcinogen: 7,12-DIMETHYLBENZ[A]ANTHRACENE, 57-97-6, Dose [Inhibitor]: 43 UG IN 80 µL ACETONE ONCE APPLIED ON BACK 5 MIN PRIOR TO CARCINOGEN DOSE (STUDY DURATION: 4 MO), Route [Inhibitor]: DERMAL, Species: MOUSE, Strain/Sex: ICR/FEMALE, Target Tissue: Type of Lesion: SKIN: TUMOR, Dose [Carcinogen]: 25 UG IN 80 µL ACETONE APPLIED ON BACK, Promoter: CROTON OIL, 8001-28-3); 27/34 (80%), 10/18 (56%), 30%, not significant (Carcinogen: 7,12-DIMETHYLBENZ[A]ANTHRACENE;57-97-6, Dose [Inhibitor]: 200 MG IN 1 ML OLIVE OIL ONCE 1 HR PRIOR TO CARCINOGEN DOSE(STUDY DURATION: 18 WK), Route [Inhibitor]: GAVAGE, Species: RAT, Strain/Sex: SPRAGUE-DAWLEY/FEMALE, Target Tissue: Type of Lesion: MAMMARY GLAND: TUMOR, Dose [Carcinogen]: 12 MG IN 1 ML OLIVE OIL ADMINISTERED 1 HR AFTER INHIBITOR, Promoter: NONE USED). The “tumour outcome (control, treated, inhibition, significance)” value by setting is: (Carcinogen: 7,12-DIMETHYLBENZ[A]ANTHRACENE, 57-97-6, Dose [Inhibitor]: 1000 UG APPLIED ONCE 5 MIN PRIOR TO CARCINOGEN DOSE (STUDY DURATION: 28 WK), Route [Inhibitor]: DERMAL, Species: MOUSE, Strain/Sex: CD-1/FEMALE, Target Tissue: Type of Lesion: SKIN: PAPILLOMA, Dose [Carcinogen]: 2.56 UG APPLIED ONCE 5 MIN AFTER INHIBITOR, Promoter: 12-O-TETRADECANOYLPHORBOL-13-ACETATE, 16561-29-8) 82%, 68%, 17%, not calculated; (Carcinogen: METHYL(ACETOXYMETHYL)NITROSAMINE, 56856-83-8, Dose [Inhibitor]: 0, 5.8 NMOL IN DRINKING WATER BEGINNING 2 WK PRIOR TO CARCINOGEN AND CONTINUED FOR STUDY DURATION, (STUDY DURATION: 13 M, Dose [Inhibitor]: 0, 5.8 NMOL IN DRINKING WATER BEGINNING 2 WK PRIOR TO CARCINOGEN AND CONTINUED FOR STUDY DURATION, (STUDY DURATION: 13 M, Route [Inhibitor]: ORAL, Species: HAMSTER, Strain/Sex: SYRIAN/FEMALE, Target Tissue: Type of Lesion: ORAL CAVITY: TUMOR, Dose [Carcinogen]: 2 MG/KG BW IN DISTILLED WATER TO RIGHT CHEEK POUCH 2/MO FOR 6 MO (TOTAL DOSE 24 MG/KG), Promoter: NONE USED) 14/15 (93%), 1/15 (7%), 92%, p<0.001; (Carcinogen: N-BIS(2-HYDROXYPROPYL)NITROSAMINE, 53609-64-6, Dose [Inhibitor]: 0, 1% IN DIET FOR 30 WK BEGINNING POST CARCINOGEN TREATMENT (STUDY DURATION: 32 WK), Route [Inhibitor]: ORAL, Species: RAT, Strain/Sex: F344/MALE, Target Tissue: Type of Lesion: BLADDER: ADENOMA, Dose [Carcinogen]: 0.1% IN DRINKING WATER FOR 2 WK, Promoter: NONE USED) 5%, 15%, -200%, not calculated; (Carcinogen: N-BIS(2-HYDROXYPROPYL)NITROSAMINE, 53609-64-6, Dose [Inhibitor]: 0, 1% IN DIET FOR 30 WK BEGINNING POST CARCINOGEN TREATMENT (STUDY DURATION: 32 WK), Route [Inhibitor]: ORAL, Species: RAT, Strain/Sex: F344/MALE, Target Tissue: Type of Lesion: KIDNEY: TUMOR, Dose [Carcinogen]: 0.1% IN DRINKING WATER FOR 2 WK, Promoter: NONE USED) 10%, 20%, -100%, not calculated.
